For assay [1], the target named is T1, Mitogen-activated protein kinase 8 (Homo sapiens, UniProt P45983). Nature of the assay: Inhibition of JNK1 (unknown origin) expressed in HEK293 cells assessed as anisomycin-induced JNK phosphorylation at 10 uM incubated for 30 mins by Western blot analysis relative to anisomycin. It is filed as cell-based. More on the design: scale not given: the % may be the effect or the level left. A general note: Immunoblotting shows a protein as a band on a membrane.

Assay [2] concerns HEK293. As to the kind of experiment: Cytotoxicity against HEK293 after 24 hrs by CellTiter-Glo luminescent cell viability assay. It is filed as cell-based. Conditions: Homo sapiens, HEK293, 24 h. In general terms: Cellular ATP, detected with luciferase, serves as a proxy for viable cell number.
Assay [3] concerns the target T1, Mitogen-activated protein kinase 8. Nature of the assay: Inhibition of JNK1 (unknown origin) expressed in HEK293 cells assessed as anisomycin-induced c-Jun phosphorylation at 10 uM incubated for 30 mins by Western blot analysis relative to anisomycin. It is filed as cell-based. Further details: scale not given: the % may be the effect or the level left.
Assay [4] concerns the target Mitogen-activated protein kinase 8 (Rattus norvegicus) (UniProt P49185). Nature of the assay: Inhibition of JNK1 phosphorylation in rat RINm5F cells assessed as suppression of albumin-conjugated palmitate-induced IRS-1 Ser307 phosphorylation incubated for 8 hrs. It is filed as cell-based. Further details: concentration or dose not given beside the values. Conditions: concentration not given here.

Assay [5] addresses T1, Mitogen-activated protein kinase 8. As to the kind of experiment: Inhibition of JNK1 (unknown origin) expressed in HEK293 cells assessed as anisomycin-induced IRS-1(Ser307) phosphorylation at 10 uM incubated for 30 mins by Western blot analysis relative to anisomycin. The format is cell-based. More on the design: scale not given: the % may be the effect or the level left.

Assay [6] shares this target. Nature of the assay: Inhibition of JNK1 (unknown origin).
Assay [7] deals with Mitogen-activated protein kinase 8 (Rattus norvegicus) (UniProt P49185). As to the kind of experiment: Inhibition of albumin-conjugated palmitate-induced JNK1/2 phosphorylation assessed as JNK phosphorylation level in rat RINm5F cells incubated for 8 hrs. It is filed as cell-based.

SMILES strings stand for the structures. Calls of active or inactive are those of the source. No cut-off for these calls is given here.

By IC50 is commonly meant the concentration that inhibits the measured activity by half. Broadly, the inhibition is the share of the control response that was lost under treatment.

T1 sequence (P45983 whole entry): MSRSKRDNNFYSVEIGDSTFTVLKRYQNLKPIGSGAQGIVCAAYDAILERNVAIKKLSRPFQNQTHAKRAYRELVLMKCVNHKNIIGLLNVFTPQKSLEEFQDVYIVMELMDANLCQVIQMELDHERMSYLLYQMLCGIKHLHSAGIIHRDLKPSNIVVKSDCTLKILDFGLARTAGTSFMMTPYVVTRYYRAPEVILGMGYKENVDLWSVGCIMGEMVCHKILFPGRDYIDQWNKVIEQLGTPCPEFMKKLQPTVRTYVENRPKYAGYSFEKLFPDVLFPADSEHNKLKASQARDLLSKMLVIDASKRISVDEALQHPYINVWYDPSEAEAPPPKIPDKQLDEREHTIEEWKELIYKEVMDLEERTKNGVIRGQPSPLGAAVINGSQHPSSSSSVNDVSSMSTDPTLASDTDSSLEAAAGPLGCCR
Chain of Mitogen-activated protein kinase 8 (Rattus norvegicus) (P49185 whole entry): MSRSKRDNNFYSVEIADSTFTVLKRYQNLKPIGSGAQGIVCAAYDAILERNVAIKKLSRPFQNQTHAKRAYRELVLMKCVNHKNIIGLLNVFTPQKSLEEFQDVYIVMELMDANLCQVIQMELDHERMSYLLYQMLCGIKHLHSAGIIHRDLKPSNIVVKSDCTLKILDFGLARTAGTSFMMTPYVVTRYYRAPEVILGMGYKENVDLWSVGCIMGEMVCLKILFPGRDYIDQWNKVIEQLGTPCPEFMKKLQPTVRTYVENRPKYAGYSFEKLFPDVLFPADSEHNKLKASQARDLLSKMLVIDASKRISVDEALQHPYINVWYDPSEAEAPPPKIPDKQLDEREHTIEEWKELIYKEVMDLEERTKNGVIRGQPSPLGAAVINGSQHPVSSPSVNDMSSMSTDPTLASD

Consider `Cn1c(=O)c(Oc2ccc(F)cc2F)cc2cnc(NC3CCCC3)nc21`, for which the Activity is 40% in assay [1], 66.5% in assay [3] and 0% in assay [5]. For the same compound, the figures for the IC50 in assay [2] and in assay [6] were greater than 30 µM and 5.93 µM, respectively. For the same compound, the inhibition in assay [4] came out at 61%. Besides, in assay [7], the inhibition entry was “inactive”.

The record behind these values is ChEMBL document CHEMBL3745672, “Novel compounds reducing IRS-1 serine phosphorylation for treatment of diabetes” (Bioorg Med Chem Lett, 2016).
